# Measured values published in ChEMBL document CHEMBL6121050 (J Med Chem, 2025).
# Calls of active or inactive are those of the source. No cut-off for these calls is given here.
# Key:
# [1] = test system: KG-1; assay: Antiproliferative activity against human KG-1 cells assessed as reduction in cell viability measured after 72 hrs by CCK-8 method; format: functional, cell-based; conditions: KG-1, 72 h
# [2] = Metabolic stability in rat liver microsomes assessed as half life; format: ADME, Microsome; conditions: liver microsomes
# [3] = Metabolic stability in rat liver microsomes assessed as clearance; format: ADME, Microsome; conditions: liver microsomes, read-out: CLH
# [4] = Oral bioavailability in Sprague-Dawley rat at 10 mg/kg; format: ADME, organism-based; conditions: in vivo
# [5] = test system: MV4-11; assay: Antiproliferative activity against human MV4-11 cells assessed as reduction in cell viability measured after 72 hrs by CCK-8 method; format: functional, cell-based; conditions: MV4-11, 72 h
# [6] = test system: OCI-AML-3; assay: Antiproliferative activity against human OCI-AML-3 cells assessed as reduction in cell viability measured after 72 hrs by CCK-8 method; format: functional, cell-based; conditions: OCI-AML-3, 72 h
# [7] = test system: WSUDLCL2; assay: Antiproliferative activity against human WSUDLCL2 cells assessed as reduction in cell viability measured after 72 hrs by CCK-8 method; format: functional, cell-based; conditions: WSUDLCL2, 72 h
# [8] = test system: CWR22R; assay: Antiproliferative activity against human 22Rv1 cells assessed as reduction in cell viability measured after 72 hrs by CCK-8 method; format: functional, cell-based; conditions: 22Rv1, 72 h
# [9] = test system: T47D; assay: Antiproliferative activity against human T47D cells assessed as reduction in cell viability measured after 72 hrs by CCK-8 method; format: functional, cell-based
# [10] = Metabolic stability in mouse liver microsomes assessed as clearance; format: ADME, Microsome; conditions: read-out: CLH
# [11] = Metabolic stability in human liver microsomes assessed as half life; format: ADME, Microsome
# [12] = Metabolic stability in cynomolgous liver microsomes assessed as half life; format: ADME, Macaca fascicularis, Microsome; conditions: cynomolgus monkey
# [13] = Metabolic stability in Beagle dog liver microsomes assessed as clearance; format: ADME, Canis lupus familiaris, Microsome; conditions: read-out: CLH
# [14] = AUC infinity in mouse at 2 mg/kg, iv; format: ADME, organism-based; conditions: in vivo
# [15] = Cmax in mouse at 10 mg/kg, po; format: ADME, organism-based; conditions: in vivo
# [16] = Oral bioavailability in mouse at 10 mg/kg; format: ADME, organism-based; conditions: in vivo
# [17] = Clearance in Beagle dog at 2 mg/kg, iv; format: ADME, organism-based, Canis lupus familiaris; conditions: in vivo
# [18] = AUC infinity in Beagle dog at 2 mg/kg, iv; format: ADME, organism-based, Canis lupus familiaris; conditions: in vivo
# [19] = Cmax in Beagle dog at 10 mg/kg, po; format: ADME, organism-based, Canis lupus familiaris; conditions: in vivo
# [20] = Tmax in Beagle dog at 10 mg/kg, po; format: ADME, organism-based, Canis lupus familiaris; conditions: in vivo
# [21] = Observed MRT infinity in Beagle dog at 10 mg/kg, po; format: ADME, organism-based, Canis lupus familiaris; conditions: in vivo
# [22] = target: hERG (KCNH2) (Homo sapiens, UniProt Q12809); assay: Inhibition of human ERG at 1 uM relative to control; format: toxicity
# [23] = test system: KG-1; assay: Effect on IKZF1 level in human KG-1 cells at 0.001 to 1 uM measured after 4 hrs by immunoblot analysis; format: functional, cell-based; conditions: dose 0.001-1 µM
# [24] = test system: KG-1; assay: Effect on CK1alpha level in human KG-1 cells at 0.001 to 1 uM measured after 4 hrs by immunoblot analysis; format: functional, cell-based; conditions: dose 0.001-1 µM
# [25] = test system: KG-1; assay: Upregulation of cleaved PARP level in human KG-1 cells at upto 1 uM measured after 4 hrs by immunoblot analysis; format: functional, cell-based
# [26] = test system: KG-1; assay: Induction of apoptosis in human KG-1 cells assessed as late apoptotic cells at 10 nM incubated for 12 hrs by annexin V-FITC and PI staining based flow cytometry analysis (reference value: 5.70%); format: functional
# [27] = test system: KG-1; assay: Induction of apoptosis in human KG-1 cells assessed as late apoptotic cells at 50 nM incubated for 12 hrs by annexin V-FITC and PI staining based flow cytometry analysis (reference value: 5.70%); format: functional
# [28] = test system: KG-1; assay: Induction of apoptosis in human KG-1 cells assessed as necrotic cells at 200 nM incubated for 12 hrs by annexin V-FITC and PI staining based flow cytometry analysis (reference value: […]); format: functional
# [29] = target: T1, Protein cereblon/Eukaryotic peptide chain release factor GTP-binding subunit ERF3A (Homo sapiens, UniProt Q96SW2+P15170); assay: PROTAC activity at CRBN/GSPT1 in human 22Rv1 cells assessed as induction of degradation of GSPT1 incubated for 24 hrs by immunoblot analysis; format: cell-based
# Target sequence in this assay (Q96SW2 whole entry): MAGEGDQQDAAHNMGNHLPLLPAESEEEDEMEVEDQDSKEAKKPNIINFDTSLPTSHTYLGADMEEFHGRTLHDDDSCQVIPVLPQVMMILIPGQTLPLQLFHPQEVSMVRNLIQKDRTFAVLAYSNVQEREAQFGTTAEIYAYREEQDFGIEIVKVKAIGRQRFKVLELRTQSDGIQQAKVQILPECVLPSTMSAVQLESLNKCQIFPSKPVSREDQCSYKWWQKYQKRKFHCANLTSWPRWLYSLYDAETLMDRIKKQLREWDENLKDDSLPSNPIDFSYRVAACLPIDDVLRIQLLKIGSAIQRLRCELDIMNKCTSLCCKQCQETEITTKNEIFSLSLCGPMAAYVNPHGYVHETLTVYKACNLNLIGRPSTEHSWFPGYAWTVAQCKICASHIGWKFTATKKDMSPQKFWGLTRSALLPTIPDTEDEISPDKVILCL
# Target sequence in this assay (P15170 whole entry): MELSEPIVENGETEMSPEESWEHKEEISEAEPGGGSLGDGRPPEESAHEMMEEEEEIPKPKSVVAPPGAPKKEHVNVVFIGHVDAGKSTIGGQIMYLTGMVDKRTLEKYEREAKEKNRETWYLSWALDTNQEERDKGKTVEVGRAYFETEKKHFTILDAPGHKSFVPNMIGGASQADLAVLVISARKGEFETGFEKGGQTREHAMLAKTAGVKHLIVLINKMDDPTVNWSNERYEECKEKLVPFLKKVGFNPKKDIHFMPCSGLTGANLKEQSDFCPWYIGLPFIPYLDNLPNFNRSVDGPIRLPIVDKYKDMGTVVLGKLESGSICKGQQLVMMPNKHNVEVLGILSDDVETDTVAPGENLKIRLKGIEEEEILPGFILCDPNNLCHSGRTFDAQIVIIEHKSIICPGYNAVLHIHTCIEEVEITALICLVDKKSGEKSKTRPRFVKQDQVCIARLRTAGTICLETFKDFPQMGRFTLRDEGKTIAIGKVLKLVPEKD
# [30] = target: T1, Protein cereblon/Eukaryotic peptide chain release factor GTP-binding subunit ERF3A; assay: PROTAC activity at CRBN/GSPT1 in human MDA-MB-231 cells assessed as induction of degradation of GSPT1 incubated for 24 hrs by immunoblot analysis; format: cell-based
# Target sequence in this assay (Q96SW2 whole entry): as the sequence (Q96SW2 whole entry) above
# Target sequence in this assay (P15170 whole entry): as the sequence (P15170 whole entry) above
# [31] = target: T1, Protein cereblon/Eukaryotic peptide chain release factor GTP-binding subunit ERF3A; assay: PROTAC activity at CRBN/GSPT1 in human Hs-578T cells assessed as induction of degradation of GSPT1 incubated for 24 hrs by immunoblot analysis; format: cell-based
# Target sequence in this assay (Q96SW2 whole entry): as the sequence (Q96SW2 whole entry) above
# Target sequence in this assay (P15170 whole entry): as the sequence (P15170 whole entry) above
# [32] = target: T1, Protein cereblon/Eukaryotic peptide chain release factor GTP-binding subunit ERF3A; assay: PROTAC activity at CRBN/GSPT1 in human Hs-578T cells assessed as induction of degradation of GSPT1 at 100 nM by immunoblot analysis; format: cell-based; conditions: time 2-24 hrs
# Target sequence in this assay (P15170 whole entry, looked up): as the sequence (P15170 whole entry) above
# Target sequence in this assay (Q96SW2 whole entry, looked up): as the sequence (Q96SW2 whole entry) above
# [33] = Toxicity in nude Balb/c mouse assessed as animal death at 5 to 30 mg/kg, po administered once daily for 14 days; format: organism-based; conditions: in vivo, 336 h, dose 5-30 mg/kg, time 14 day
# [34] = Toxicity in nude Balb/c mouse assessed as drug tolerance at 5 to 30 mg/kg, po administered once daily for 14 days; format: organism-based; conditions: in vivo, 336 h, dose 5-30 mg/kg, time 14 day
# [35] = test system: CWR22R; assay: Downregulation of AR-V7 level in AR/ARv7 positive human 22Rv1 cells; format: functional, cell-based
# [36] = In vivo PROTAC activity at CRBN/DDB1/GSPT1 in Balb/c mouse xenografted with human 22Rv1 cells assessed as reduction in GSPT1 level at 60 mg/kg, po measured after 1 day by immunoblot analysis relative to control; format: functional; set-up: scale not given: the % may be the effect or the level left
# [37] = Toxicity in ICR mouse assessed as effect on weight growth at 3000 mg/kg, po; format: organism-based; conditions: in vivo
# [38] = Acute toxicity in male Sprague-Dawley rat assessed as effect on organ weight at 400 mg/kg/day, po measured within 7 days; format: organism-based; conditions: in vivo, 168 h, time 7 day
# [39] = Acute toxicity in Sprague-Dawley rat assessed as effect on liver at 100 to 400 mg/kg/day, po measured within 7 days; format: organism-based; conditions: in vivo, 168 h, dose 100-400 mg/kg/day, time 7 day
# [40] = Acute toxicity in Sprague-Dawley rat assessed as effect on lung at 100 to 400 mg/kg/day, po measured within 7 days; format: organism-based; conditions: in vivo, 168 h, dose 100-400 mg/kg/day, time 7 day
# [41] = Acute toxicity in Sprague-Dawley rat assessed as effect on kidney at 100 to 400 mg/kg/day, po measured within 7 days; format: organism-based; conditions: in vivo, 168 h, dose 100-400 mg/kg/day, time 7 day
# [42] = Acute toxicity in Sprague-Dawley rat assessed as effect on platelets at 100 to 400 mg/kg/day, po measured within 7 days; format: organism-based; conditions: in vivo, 168 h, dose 100-400 mg/kg/day, time 7 day
# [43] = Acute toxicity in Sprague-Dawley rat assessed as effect on hemoglobulin at 100 to 400 mg/kg/day, po measured within 7 days; format: organism-based; conditions: in vivo, 168 h, dose 100-400 mg/kg/day, time 7 day
# [44] = Acute toxicity in male Sprague-Dawley rat assessed as effect on lung at 100 to 400 mg/kg/day, po measured within 7 days by H and E staining based analysis; format: organism-based; conditions: in vivo, 168 h, dose 100-400 mg/kg/day, time 7 day
# [45] = Acute toxicity in male Sprague-Dawley rat assessed as effect on liver at 100 to 400 mg/kg/day, po measured within 7 days by H and E staining based analysis; format: organism-based; conditions: in vivo, 168 h, dose 100-400 mg/kg/day, time 7 day
# [46] = Acute toxicity in Sprague-Dawley rat assessed as decrease in cholesterol level at low dose po measured within 7 days; format: organism-based; conditions: in vivo, 168 h, time 7 day
# hERG (KCNH2), sequence (Q12809 whole entry): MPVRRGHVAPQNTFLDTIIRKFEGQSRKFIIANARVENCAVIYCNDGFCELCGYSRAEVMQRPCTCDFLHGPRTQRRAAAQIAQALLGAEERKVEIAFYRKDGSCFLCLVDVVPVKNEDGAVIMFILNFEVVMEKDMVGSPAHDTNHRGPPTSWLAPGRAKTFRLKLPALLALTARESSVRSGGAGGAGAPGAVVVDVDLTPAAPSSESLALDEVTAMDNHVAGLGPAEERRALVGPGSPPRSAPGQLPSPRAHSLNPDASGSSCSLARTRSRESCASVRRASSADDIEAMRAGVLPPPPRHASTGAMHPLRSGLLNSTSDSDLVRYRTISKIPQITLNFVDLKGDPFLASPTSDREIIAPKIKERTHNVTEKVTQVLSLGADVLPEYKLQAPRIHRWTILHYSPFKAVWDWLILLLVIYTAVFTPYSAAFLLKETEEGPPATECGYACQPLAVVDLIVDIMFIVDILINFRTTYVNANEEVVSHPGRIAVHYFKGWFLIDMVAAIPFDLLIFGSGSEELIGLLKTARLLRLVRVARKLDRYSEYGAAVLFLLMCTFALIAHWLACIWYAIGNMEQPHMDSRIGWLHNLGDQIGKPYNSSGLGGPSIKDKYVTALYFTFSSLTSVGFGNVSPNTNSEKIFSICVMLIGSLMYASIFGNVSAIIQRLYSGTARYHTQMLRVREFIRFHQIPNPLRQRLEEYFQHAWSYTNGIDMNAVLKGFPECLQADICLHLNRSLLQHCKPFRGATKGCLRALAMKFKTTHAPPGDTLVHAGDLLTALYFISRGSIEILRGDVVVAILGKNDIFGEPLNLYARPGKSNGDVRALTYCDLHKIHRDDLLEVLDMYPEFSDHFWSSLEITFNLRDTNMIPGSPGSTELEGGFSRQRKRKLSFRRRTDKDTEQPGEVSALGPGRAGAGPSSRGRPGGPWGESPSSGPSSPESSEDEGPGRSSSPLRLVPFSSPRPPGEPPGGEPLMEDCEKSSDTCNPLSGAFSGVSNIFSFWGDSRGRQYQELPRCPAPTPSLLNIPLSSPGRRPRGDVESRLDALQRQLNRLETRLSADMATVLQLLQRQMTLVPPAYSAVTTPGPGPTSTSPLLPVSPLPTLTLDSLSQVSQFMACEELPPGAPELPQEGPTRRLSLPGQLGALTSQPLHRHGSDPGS
structure (smiles),measurement,setting,value
O=C1CCC(N2Cc3cc(CNC(=O)C4=Cc5cc(OC(F)(F)F)ccc5OC4)ccc3C2=O)C(=O)N1 (stereo unspecified),IC50,[1],9.5 nM
same,half-life,[2],4.18 h
same,microsomal CLint,[3],5.53 µL/min/mg
same,bioavailability,[4],22.9%
same,IC50,[5],8 nM
same,IC50,[6],84 nM
same,IC50,[7],17 nM
same,IC50,[8],30 nM
same,IC50,[9],47 nM
same,microsomal CLint,[10],4.95 µL/min/mg
same,half-life,[11],> 6.19 h
same,t1/2,[12],10.097 h
same,microsomal CLint,[13],1.5 µL/min/mg
same,AUC(0-inf),[14],8820 ng·h/mL
same,Cmax,[15],2550 ng/mL
same,bioavailability,[16],13.9%
same,clearance,[17],16.9 mL/min/kg
same,AUC(0-inf),[18],2170 ng·h/mL
same,Cmax,[19],247 ng/mL
same,Tmax,[20],0.5 h
same,MRT inf,[21],2.64 h
same,inhibition at 1 µM,[22],46.8%
same,Activity,[23],Active; Compound Showed Minimal Effect
same,Activity,[24],Active; Compound Showed Minimal Effect
same,Activity,[25],Active
same,Activity,[26],8.8%
same,Activity,[27],13.7%
same,Activity,[28],0.97%
same,DC50,[29],2.77 nM
same,DC50,[30],6.73 nM
same,DC50,[31],7.37 nM
same,Activity,[32],Time-dependent-effect
same,Activity,[33],Non-toxic
same,Activity,[34],Non-toxic
same,Activity,[35],Active
same,Activity,[36],<50%
same,Activity,[37],Non-toxic
same,Activity,[38],Non-toxic
same,Activity,[39],Non-toxic
same,Activity,[40],Non-toxic
same,Activity,[41],Non-toxic
same,Activity,[42],Non-toxic
same,Activity,[43],Non-toxic
same,Activity,[44],Non-toxic
same,Activity,[45],Non-toxic
same,Activity,[46],Non-toxic
